According to patent US20250214947A1, “3,4-DIHYDROQUINOXALINE-2-CARBOXIMIDE DERIVATIVE COMPOUND AND PHARMACEUTICAL COMPOSITION COMPRISING SAME FOR PREVENTING OR TREATING CANCER DISEASE” (Cureverse Incorporated, priority 2022, published 2025):
One block for each molecule: values may come before it.

How the values were obtained:
HDAC8 = biological target: T1, HDAC8 (Homo sapiens, UniProt Q9BY41); assay: HDAC8 inhibitory activity analysis (in vitro), RFU analysis, HDAC Fluorogenic assay kit; type: biochemical; settings: 10 μM; compared with TSA or SAHA
T1 construct: purchased BPS bioscience
T1 sequence (Q9BY41 1-377): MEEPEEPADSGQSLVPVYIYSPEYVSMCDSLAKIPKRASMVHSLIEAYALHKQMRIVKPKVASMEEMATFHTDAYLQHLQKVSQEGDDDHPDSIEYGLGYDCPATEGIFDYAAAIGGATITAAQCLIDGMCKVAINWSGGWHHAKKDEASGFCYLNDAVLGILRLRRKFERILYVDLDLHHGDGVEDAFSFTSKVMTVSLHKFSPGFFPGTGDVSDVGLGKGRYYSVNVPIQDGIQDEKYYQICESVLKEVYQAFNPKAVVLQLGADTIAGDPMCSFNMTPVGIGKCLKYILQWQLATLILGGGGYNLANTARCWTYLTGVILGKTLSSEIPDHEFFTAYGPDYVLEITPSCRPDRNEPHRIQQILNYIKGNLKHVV
Method: The compound of the Example was diluted to 1 mM (1% DMSO concentration) using DMSO to obtain a final concentration of 10 μM, and prepared by diluting 1/10 with assay buffer. In a 96-well black round-bottom plate, 5 μL of the diluted compound of the Example, 5 μL of the diluted HDAC substrate 2A, 5 μL of BSA (1 mg/mL), 5 µL of the HDAC8 enzyme diluted to an appropriate concentration, and 30 μL of assay buffer were added, and the enzyme reaction was performed at 37° C. for 30 minutes. […] Afterwards, 50 μL of 2×HDAC developer was added to each well. After reacting for 15 minutes at room temperature, the fluorescence values at excitation wavelengths of 350-380 nm and emission wavelengths of 440-460 nm were measured using a microplate reader (Synergy Neo).

Liver cancer cells Huh-7 = assay: Liver cancer cell growth inhibition, CellTiter-Glo Luminescent Cell Viability Assay; type: cell-based; settings: various concentrations; day 1; FIG. 6
Method: In addition, an analysis of liver cancer growth inhibitory activity was performed. Liver cancer cells Huh-7 cells were dispensed in a 96-well plate at 1×10^4 cells/ml, and after 20 hours, PCI34051, Example 27, and Example 35 were added at various concentrations, and cultured for 24 and 48 hours at 37° C. in a 5% CO2 atmosphere. After culturing, 100 l CellTiter-Glo Luminescent Cell Viability Assay reagent was added and the luminescence signal was measured after 0.5-1 hour. The luminescence signal was measured using IVIS [PerkinElmer, (Waltham, USA)].

HDAC6 = biological target: T2, HDAC6 (Homo sapiens, UniProt Q9UBN7); assay: Selective inhibitory effect, HDAC Fluorogenic assay kit, HDAC6; settings: read-out: HDAC6 enzyme activity (%)
T2 sequence (Q9UBN7 1-1215): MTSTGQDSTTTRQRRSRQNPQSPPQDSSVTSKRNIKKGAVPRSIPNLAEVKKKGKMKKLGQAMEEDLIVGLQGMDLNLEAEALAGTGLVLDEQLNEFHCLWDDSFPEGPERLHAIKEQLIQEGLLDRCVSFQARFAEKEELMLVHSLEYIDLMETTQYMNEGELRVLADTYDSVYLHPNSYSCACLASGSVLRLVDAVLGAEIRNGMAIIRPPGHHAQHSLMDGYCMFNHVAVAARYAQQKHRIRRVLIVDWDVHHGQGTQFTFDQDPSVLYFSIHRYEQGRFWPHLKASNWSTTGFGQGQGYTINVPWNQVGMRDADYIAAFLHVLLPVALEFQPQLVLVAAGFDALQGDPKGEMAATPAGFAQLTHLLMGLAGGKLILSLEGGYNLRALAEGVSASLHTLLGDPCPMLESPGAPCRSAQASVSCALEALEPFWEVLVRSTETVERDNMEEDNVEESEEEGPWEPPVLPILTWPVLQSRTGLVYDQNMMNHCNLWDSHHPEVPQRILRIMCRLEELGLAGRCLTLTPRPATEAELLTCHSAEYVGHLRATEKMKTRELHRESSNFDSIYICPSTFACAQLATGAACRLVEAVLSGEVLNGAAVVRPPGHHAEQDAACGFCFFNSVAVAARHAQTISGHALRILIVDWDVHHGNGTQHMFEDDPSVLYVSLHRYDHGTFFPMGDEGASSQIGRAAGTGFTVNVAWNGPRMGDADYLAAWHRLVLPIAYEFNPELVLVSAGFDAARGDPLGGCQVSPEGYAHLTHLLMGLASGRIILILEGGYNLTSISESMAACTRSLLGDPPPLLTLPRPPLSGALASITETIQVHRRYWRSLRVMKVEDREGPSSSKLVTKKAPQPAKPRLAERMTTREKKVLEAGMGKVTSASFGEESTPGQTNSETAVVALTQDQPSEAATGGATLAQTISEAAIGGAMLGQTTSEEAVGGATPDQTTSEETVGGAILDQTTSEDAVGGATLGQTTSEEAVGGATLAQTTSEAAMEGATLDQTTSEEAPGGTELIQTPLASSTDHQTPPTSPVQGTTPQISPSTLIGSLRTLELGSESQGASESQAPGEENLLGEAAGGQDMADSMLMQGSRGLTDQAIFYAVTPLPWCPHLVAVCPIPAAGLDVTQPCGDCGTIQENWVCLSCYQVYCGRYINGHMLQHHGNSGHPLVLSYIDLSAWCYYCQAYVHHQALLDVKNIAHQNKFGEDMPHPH
Method: (§1) For analysis, HDAC substrate 3 was diluted in buffer to a concentration of 200 μM and used in HDAC 1, 2, 3, 6, and 10 assays, HDAC substrate 2A was diluted in buffer to a concentration of 200 μM and used in HDAC 4, 7, 9, and 11 assays, HDAC substrate 2A was diluted in buffer to a concentration of 20 μM and used in HDAC 8 assays. For the HDAC 11 assay, a dedicated buffer included in the kit was used separately, and the same buffer was used for the remaining assays. The compound of the Example was diluted to 1 mM (1% DMSO concentration) using DMSO to obtain a final concentration of 10 μM, and prepared by diluting 1/10 with assay buffer. In a 96-well black round-bottom plate, 5 μL of the diluted compound of the Example, 5 μL of the diluted HDAC substrate, 5 μL of BSA (1 mg/ml), 5 μL of the HDAC enzyme diluted to the appropriate concentration, and 30 μL of assay buffer were added, and the enzyme reaction was performed at 37° C. for 30 minutes. […] Afterwards, 50 μL of 2×HDAC developer was added to each well. After reacting for 15 minutes at room temperature, the fluorescence values at excitation wavelengths of 350-380 nm and emission wavelengths of 440-460 nm were measured using a microplate reader (Synergy Neo).

HDAC10 = biological target: T3, HDAC10 (Homo sapiens, UniProt Q969S8); assay: Selective inhibitory effect, HDAC Fluorogenic assay kit, HDAC10; settings: read-out: HDAC10 enzyme activity (%)
T3 sequence (Q969S8 1-669): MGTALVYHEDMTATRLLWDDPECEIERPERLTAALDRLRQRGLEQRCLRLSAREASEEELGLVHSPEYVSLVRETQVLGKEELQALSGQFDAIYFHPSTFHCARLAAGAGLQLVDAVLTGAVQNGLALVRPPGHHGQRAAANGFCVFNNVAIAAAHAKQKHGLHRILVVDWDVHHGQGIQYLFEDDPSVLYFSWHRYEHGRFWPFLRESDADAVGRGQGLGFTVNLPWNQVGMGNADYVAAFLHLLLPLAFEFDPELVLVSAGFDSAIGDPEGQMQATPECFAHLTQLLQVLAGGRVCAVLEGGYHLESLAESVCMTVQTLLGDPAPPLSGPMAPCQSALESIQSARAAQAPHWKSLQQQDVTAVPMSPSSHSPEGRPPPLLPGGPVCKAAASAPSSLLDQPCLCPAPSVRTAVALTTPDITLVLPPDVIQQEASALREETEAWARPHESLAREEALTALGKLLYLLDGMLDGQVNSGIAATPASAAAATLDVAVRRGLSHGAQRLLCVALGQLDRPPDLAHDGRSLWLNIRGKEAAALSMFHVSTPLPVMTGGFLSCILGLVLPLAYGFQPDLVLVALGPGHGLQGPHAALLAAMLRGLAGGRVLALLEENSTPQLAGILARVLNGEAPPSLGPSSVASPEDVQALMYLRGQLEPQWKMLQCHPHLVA
Method: as §1

HDAC1 = HDAC1 (Homo sapiens, UniProt Q13547); assay: Selective inhibitory effect, HDAC Fluorogenic assay kit, HDAC1; settings: read-out: HDAC1 enzyme activity (%)
Sequence of HDAC1 (Q13547 whole entry): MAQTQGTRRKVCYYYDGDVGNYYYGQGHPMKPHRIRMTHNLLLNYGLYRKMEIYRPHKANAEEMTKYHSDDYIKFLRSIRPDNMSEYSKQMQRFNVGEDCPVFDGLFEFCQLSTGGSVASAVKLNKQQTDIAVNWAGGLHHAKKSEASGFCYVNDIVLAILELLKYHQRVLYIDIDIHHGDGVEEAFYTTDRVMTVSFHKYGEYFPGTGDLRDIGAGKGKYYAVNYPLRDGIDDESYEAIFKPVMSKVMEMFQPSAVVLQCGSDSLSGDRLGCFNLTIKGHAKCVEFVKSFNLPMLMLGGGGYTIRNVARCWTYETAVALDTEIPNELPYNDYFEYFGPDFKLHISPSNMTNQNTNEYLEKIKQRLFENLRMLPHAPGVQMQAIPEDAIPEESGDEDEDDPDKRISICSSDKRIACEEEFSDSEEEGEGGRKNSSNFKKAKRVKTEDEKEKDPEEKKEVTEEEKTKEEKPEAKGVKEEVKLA
Method: as §1

HDAC2 = HDAC2 (Homo sapiens, UniProt Q92769); assay: Selective inhibitory effect, HDAC Fluorogenic assay kit, HDAC2; settings: read-out: HDAC2 enzyme activity (%)
Sequence of HDAC2 (Q92769 whole entry): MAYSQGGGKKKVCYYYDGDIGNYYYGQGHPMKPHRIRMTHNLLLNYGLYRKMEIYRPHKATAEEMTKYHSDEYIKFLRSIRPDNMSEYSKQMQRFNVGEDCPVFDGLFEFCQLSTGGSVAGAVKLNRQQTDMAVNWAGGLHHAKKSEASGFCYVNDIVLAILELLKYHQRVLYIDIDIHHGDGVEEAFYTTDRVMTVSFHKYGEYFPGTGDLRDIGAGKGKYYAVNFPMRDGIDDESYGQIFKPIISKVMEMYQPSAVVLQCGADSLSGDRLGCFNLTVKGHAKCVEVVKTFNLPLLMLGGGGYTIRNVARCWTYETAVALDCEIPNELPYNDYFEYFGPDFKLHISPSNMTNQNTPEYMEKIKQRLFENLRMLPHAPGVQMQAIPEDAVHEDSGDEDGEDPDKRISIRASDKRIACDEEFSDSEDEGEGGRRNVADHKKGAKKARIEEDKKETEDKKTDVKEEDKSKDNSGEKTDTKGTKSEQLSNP
Method: as §1

[1] = tested on: PC-3 prostate cancer cells; assay: Prostate cancer cell growth inhibition, CCK-8 assay; type: cell-based, human; settings: various concentrations, FIG. 1
Method: PC-3, a human-derived prostate cancer cell line, was cultured with RPMI1640 (10% fetal bovine serum, 1% Penicillin Streptomycin) culture medium at 37° C., 5% CO2 condition. All cells in the experiment were subcultured when they reached a confluency of approximately 80% to 90%, and only cells that had not passed 20 passages were used.
After culturing, 10 L CCK-8 reagent was added and the absorbance was measured after 1 hour. The absorbance was measured at 450 nm using a microplate reader [BMG Labtech (Offenburg, Germany)].

SMILES: Cc1cc2nc(C(=O)Nc3cc(-c4ccc(Br)cc4)no3)c(=O)n(C[C@H](O)[C@H](O)[C@H](O)CO)c2cc1C [Example 10, N-(3-(4-bromophenyl)isoxazol-5-yl)-6,7-dimethyl-3-oxo-4-((2S,3S,4R)-2,3,4,5-tetrahydroxypentyl)-3,4-dihydroquinoxaline-2-carboxamide]
inhibitory activity against HDAC8 (in words) (HDAC8): inhibitory activity similar to TSA or SAHA

SMILES: Cc1cc2nc(C(=O)NCc3ccc(CC(=O)NO)cc3)c(=O)n(C[C@H](O)[C@H](O)[C@H](O)CO)c2cc1C [Example 49, N-(4-(2-(hydroxyamino)-2-oxoethyl)benzyl)-6,7-dimethyl-3-oxo-4-((2S,3S,4R)-2,3,4,5-tetrahydroxypentyl)-3,4-dihydroquinoxaline-2-carboxamide]
inhibitory activity against HDAC8 (in words) (HDAC8): inhibitory activity similar to TSA or SAHA

SMILES: Cc1cc2nc(C(=O)NCc3ccc4[nH]cnc4c3)c(=O)n(C[C@H](O)[C@H](O)[C@H](O)CO)c2cc1C [Example 34, N-((1H-benzo[d]imidazol-5-yl)methyl)-6,7-dimethyl-3-oxo-4-((2S,3S,4R)-2,3,4,5-tetrahydroxypentyl)-3,4-dihydroquinoxaline-2-carboxamide]
inhibitory activity against HDAC8 (in words) (HDAC8): inhibitory activity similar to TSA or SAHA

SMILES: Cc1cc2nc(C(=O)Nc3cc(C(=O)NO)ccc3C)c(=O)n(C[C@H](O)[C@H](O)[C@H](O)CO)c2cc1C [Example 51, N-(5-(hydroxycarbamoyl)-2-methylphenyl)-6,7-dimethyl-3-oxo-4-((2S,3S,4R)-2,3,4,5-tetrahydroxypentyl)-3,4-dihydroquinoxaline-2-carboxamide]
inhibitory activity against HDAC8 (in words) (HDAC8): inhibitory activity similar to TSA or SAHA

SMILES: COc1ccc(Cn2ccc3ccc(C(=O)NO)cc32)cc1 [PCI-34051, N-hydroxy-1-(4-methoxybenzyl)-1H-indole-6-carboxamide, reference compound]
Huh-7 cell viability (in words) (Liver cancer cells Huh-7): concentration-dependent inhibition of cancer cell viability

remaining activity at 10 µM (HDAC6): 1.11%
remaining activity at 10 µM (HDAC10): 1.21%
remaining activity at 10 µM (HDAC1): 1.22%
remaining activity at 10 µM (HDAC2): 0.7%
SMILES: CC(/C=C/C(=O)NO)=C\[C@@H](C)C(=O)c1ccc(N(C)C)cc1 [TSA, Trichostatin A, reference compound]

SMILES: Cc1cc2nc(C(=O)Nc3ccc(C(=O)NO)cc3)c(=O)n(C[C@H](O)[C@H](O)[C@H](O)CO)c2cc1C [Example 48, N-(4-(hydroxycarbamoyl)phenyl)-6,7-dimethyl-3-oxo-4-((2S,3S,4R)-2,3,4,5-tetrahydroxypentyl)-3,4-dihydroquinoxaline-2-carboxamide]
inhibitory activity against HDAC8 (in words) (HDAC8): inhibitory activity similar to TSA or SAHA

SMILES: Cc1cc2nc(C(=O)Nc3nc4c(F)cccc4[nH]3)c(=O)n(C[C@H](O)[C@H](O)[C@H](O)CO)c2cc1C [Example 35, N-(4-fluoro-1H-benzo[d]imidazol-2-yl)-6,7-dimethyl-3-oxo-4-((2S,3S,4R)-2,3,4,5-tetrahydroxypentyl)-3,4-dihydroquinoxaline-2-carboxamide]
Huh-7 cell viability (in words) (Liver cancer cells Huh-7): concentration-dependent inhibition of cancer cell viability
PC-3 cell viability after 24 hours (in words) ([1]; 24 hours): concentration-dependent inhibition of cancer cell viability
PC-3 cell viability after 48 hours (in words) ([1]; 48 hours): cell viability was restored
inhibitory activity against HDAC8 (in words) (HDAC8): inhibitory activity similar to TSA or SAHA
